The test system of this test is activation of NF-κB by TNFα. The experiment in a line: NF-κB luciferase reporter assay (TNFα-stimulated NIH-3T3-KBFLuc cells). The test is classed as cell-based. Particulars: for Experiment 1 % of activity / Experiment 2 % of activity / Experiment 3 % of activity / Conclusions: Is inhibition of TNF activation of NF-κB observed?: cannabinoid 10 μM alone; for Experiment 1 % of activity / Experiment 2 % of activity / Experiment 3 % of activity: TNFα 30 ng/mL = 100%; for Conclusions: Is inhibition of TNF activation of NF-κB observed?: mean of three experiments. How it is done: The NF-kB pathway inhibition in response to treatment with the Cannabinoid and NHP either as single agents or in combination will be monitored using the Luciferase Reporter gene assay described in Del Prete et al, J. Nat. Prod.
For the anti-NF-κB activity stably transfected NIH-3T3-KBFLuc cells are treated with different concentration of NHP compounds for 30 minutes and then stimulated with TNF-α (30 ng/mL). After treatment, the cells are washed twice in phosphate-buffered saline and lysed in 25 mM Tris-phosphate pH 7.8, 8 mM MgCl2, 1 mM DTT, 1% Triton X-100, and 7% glycerol during 15 min at room temperature in a horizontal shaker. Luciferase activity in the supernatant is measured using a TriStar2 Berthold/LB942 multimode reader (Berthold Technologies) following the manufacturer's instructions of the luciferase assay kit (Promega, Madison, Wis., US). For NF-κB inhibition the RLU (relative light units) is calculated, and the results are normalized to 100% stimulation induced by induced by TNF-α (100% activation). The results are presented from three independent experiments.
A general note: A reporter such as luciferase makes a cellular process visible.

The values below come from patent US20210196670A1, “ORAL FORMULATIONS OF LAVENDER AND CANNABINOIDS” (EMERALD HEALTH THERAPEUTICS CANADA INC., priority 2018, published 2021).

In the case of `C=C(C)[C@@H]1CCC(C)=C[C@H]1c1c(O)cc(CCCCC)cc1O` [CBD, cannabidiol], the “Experiment 1 % of activity” value stood at 93.6%, the “Experiment 2 % of activity” value is 97.0%, the “Experiment 3 % of activity” value is given as 108.2% and the “Conclusions: Is inhibition of TNF activation of NF-κB observed?” value is reported as “Negative (Only treatments that the mean of three consecutive independent experiments shows a positive result (activity ≤50%) are considered inhibitory of NF-κB activity)”. In addition, the “inhibition of NF-κB activity by the cannabinoid itself” value (10 μM, alone) is “non-inhibitory”.

With `CCCCCc1cc(O)c2c(c1)OC(C)(C)[C@@H]1CCC(C)=C[C@@H]21` [THC, tetrahydrocannabinol], the “Experiment 1 % of activity” value turned out to be 102.5%, the “Experiment 2 % of activity” value is 97.8%, the “Experiment 3 % of activity” value is listed as 98.5% and the “Conclusions: Is inhibition of TNF activation of NF-κB observed?” value is on record as “Negative (Only treatments that the mean of three consecutive independent experiments shows a positive result (activity ≤50%) are considered inhibitory of NF-κB activity)”.
